Laboratory results published in US11058781B2, “Diazacarbazole derivatives as tau-PET-ligands” (Hoffmann-La Roche Inc., priority 2013, dated 2021).

Key:
tau aggregates = test: Autoradiogram of the tritiated radioligand on a human cortical brain section (Braak V AD patient); format: binding; details: radioligand concentration 3.2 nM, Braak V staged AD patient
Experimental: FIG. 1: Autoradiogram of ^3H-2-(6-fluoro-pyridin-3-yl)-9H-dipyrido[2,3-b;3′,4′-d]pyrrole.
Autoradiogram of ^3H-2-(6-fluoro-pyridin-3-yl)-9H-dipyrido[2,3-b;3′,4′-d]pyrrole incubated with a human cortical brain section obtained from a Braak V staged AD patient. The radioligand concentration was 3.2 nM.

native tau aggregates = test: TAU radioligand in-vitro displacement assay ([3H]T808 autoradiography on AD brain sections); format: binding; details: human AD brain sections; radioligand [3H]T808 10 nM; 50 mM Tris pH 7.4, room temperature, 30 min
Experimental: This in vitro binding assay assesses the affinity of compounds for native tau aggregates. The compounds are co-incubated with the well-established tau specific radioligand [^3H]T808 and the compound's displacement potency of [^3H]T808 binding is determined by in vitro autoradiography using human Alzheimer's disease (AD) brain sections (see FIG. 2).
AD human brains are purchased from Banner Sun Health Research Institute (Sun City, Ariz., USA). Pathological diagnosis of AD is made according to standard NIA-Reagan Institute criteria based on neuropathological data. The radioligand [^3H]T808 was synthesized in-house ([^3H]-2-[4-(2-Fluoro-ethyl)-piperidin-1-yl]-benzo[4,5]imidazo[1,2-a]pyrimidine, radiochemical purity 99.0%). […] For the autoradiography FujiFilm Imaging Plates (BAS-IP TR 2025) are exposed to the sections and read with a FujiFilm IP reader (BAS-5000). […]
The signal intensity (Dens−PSL/mm2) in the region of interest (ROI) of the autoradiogram is quantified with the software MCID analysis (version 7.0, Imaging Research Inc.). The specific binding (SB) of [^3H]T808 binding in absence or in presence of a compound is calculated by subtracting the non-specific binding signal in the white matter, thus yielding SB[3H]T808 only and SBcompound. The % displacement by the various compounds is calculated as following: % displacement=100−(SBcompound/SB[3H]T808 only)*100. […]

tau aggregates, sequence (P10636 623-708 limits assumed): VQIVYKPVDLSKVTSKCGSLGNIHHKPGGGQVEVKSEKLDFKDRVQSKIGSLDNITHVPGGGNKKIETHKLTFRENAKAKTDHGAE

| Compound | staining pattern in autoradiogram (tau aggregates) | % displacement of [^3H]T808 (10 nM) (native tau aggregates) [%] |
| --- | --- | --- |
| ^3H-2-(6-Fluoro-pyridin-3-yl)-9H-dipyrido[2,3-b;3′,4′-d]pyrrole [Example 2] | punctate staining of tau aggregates in a layered distribution pattern | – |
| Fc1ccc(-c2ccc3c(n2)[nH]c2ccncc23)cn1 [Example 1, 2-(6-Fluoro-pyridin-3-yl)-9H-dipyrido[2,3-b;3′,4′-d]pyrrole] | – | 43 |
